Assay results as given in patent publication US4535159A, “Process for producing 1-position amino-derivatives of 1-(3',4'-methylenedioxyphenyl)propane-2-ol” (Ferrer Internacional, S.A., priority 1981, dated 1985).

Legend:
[1] = Acute toxicity, oral administration in female and male Swiss mice (Reed-Muench method as modified by Pizzi); settings: mouse, in vivo
Text: (b) Acute toxicity.-Acute toxicity has been determined in both female and male Swiss mice by oral administration according to the method by Reed-Muench as modified by Pizzi (Human Biology, 22(3), 151-190, 1950).

Swiss male mice = test: Analgesic activity, phenylquinone test (Siegmund et al), oral administration in Swiss male mice; format: in vivo; settings: Mus musculus
Text: (a) Analgesic activity.-Analgesic activity has been determined in Swiss male mice by orally administering the compounds according to the phenylquinone test, as described by Siegmund et al (Proc. Soc.Exp.Biol.Med., 95, 729, 1957). From the analgesia values obtained, the ED50 for each compound has been calculated.

| SMILES | LD50 [1] [mg/kg] | ED50 (Swiss male mice) [mg/kg] |
| --- | --- | --- |
| C[C@H](O)[C@@H](c1ccc2c(c1)OCO2)N1CCOCC1 (relative stereo) [Example 2, d,l-erythro-1-(3',4'-methylenedioxyphenyl)-1-morpholine-propane-2-ol] | 1200 | 25.7 |
| C[C@H](O)[C@@H](c1ccc2c(c1)OCO2)N1CCN(Cc2ccccc2)CC1 (relative stereo) [Example 3, d,l-erythro-1-(3',4'-methylenedioxyphenyl)-1-(4-benzyl-1-piperazinyl)propane-2-ol] | 256 | 29.7 |
| CCN(CC)[C@H](c1ccc2c(c1)OCO2)[C@H](C)O (relative stereo) [Example 4, d,l-erythro-1-(3',4'-methylenedioxyphenyl)-1-diethylamino-propane-2-ol] | 317 | 107 |
| C[C@H](O)[C@@H](c1ccc2c(c1)OCO2)N1CCCCC1 (relative stereo) [Example 5, d,l-erythro-1-(3',4'-methylenedioxyphenyl)-1-piperidinepropane-2-ol] | 277 | 33.3 |
| C[C@H](O)[C@@H](c1ccc2c(c1)OCO2)N1CCC(O)CC1 (relative stereo) [Example 6, d,l-erythro-1-(3',4'-methylenedioxyphenyl)-1-(4-hydroxypiperidine)-propane-2-ol] | 1060 | 109 |
| C[C@H](O)[C@@H](c1ccc2c(c1)OCO2)N1CCCC1 (relative stereo) [Example 7, d,l-erythro-1-(3',4'-methylenedioxyphenyl)-1-pyrrolidinopropane-2-ol] | 599 | 140 |
| C[C@H](O)[C@@H](c1ccc2c(c1)OCO2)N1CCCCCC1 (relative stereo) [Example 8, d,l-erythro-1-(3',4'-methylenedioxyphenyl)-1-homopiperidino-propane-2-ol] | 233 | 45.5 |
| C[C@H](O)[C@H](NCc1ccccc1)c1ccc2c(c1)OCO2 (relative stereo) [Example 9, d,l-erythro-1-(3',4'-methylenedioxyphenyl)-1-benzylaminopropane-2-ol] | 252 | 28.8 |
| C[C@H](O)[C@@H](c1ccc2c(c1)OCO2)N(C)Cc1ccccc1 (relative stereo) [Example 10, d,l-erythro-1-(3',4'-methylenedioxyphenyl)-1-(N-methylbenzylamino)-propane-2-ol] | 360 | 33.8 |
| C[C@H](O)[C@@H](c1ccc2c(c1)OCO2)N(C)C1CCCCC1 (relative stereo) [Example 11, d,l-erythro-1-(3',4'-methylenedioxyphenyl)-1-(N-methylcyclohexylamino)-propane-2-ol] | 167 | 29.8 |
| C[C@H](O)[C@H](NC1CC1)c1ccc2c(c1)OCO2 (relative stereo) [Example 12, d,l-erythro-1-(3',4'-methylenedioxyphenyl)-1-cyclopropylaminopropane-2-ol] | 780 | 62.3 |
| C[C@H](O)[C@H](NC1CCCCC1)c1ccc2c(c1)OCO2 (relative stereo) [Example 13, d,l-erythro-1-(3',4'-methylenedioxyphenyl)-1-cyclohexylaminopropane-2-ol] | 245 | 31.7 |
| CC(=O)Oc1ccccc1C(=O)O [Acetylsalicylic acid, reference compound] | – | 72 |
| Cc1c(N(C)C)c(=O)n(-c2ccccc2)n1C [Aminophenazone, reference compound] | – | 23.4 |
| COc1ccc2c3c1O[C@H]1[C@@H](O)C=C[C@H]4[C@@H](C2)N(C)CC[C@@]341 [Codeine, reference compound] | – | 1.97 |
